Assay [1] deals with Angiotensin II (AT2) Receptor. Description: Test for Inhibition of Binding to Angiotensin II (AT2) Receptor. To be noted: 10^-6 M compound; 0.1 nM ^125 I-AngII; bovine brain specimen; 37° C., 30 minutes. How it is done: Test for Inhibition of Binding to Angiotensin II (AT2) Receptor:
The effect of the compounds of the present invention for inhibiting the binding activity of Angiotensin II (AngII) to the bovine brain receptor were tested, according to the method by J. P. Bennett, Jr. et al. [J. Biol. Chem., 251, 7423-7430 (1976)].
10^-6 M of the compound of the present invention to be tested was added to an aqueous solution containing a predetermined amount of a bovine brain specimen and 0.1 nM of ^125 I-AngII and incubated at 37° C. for 30 minutes. The resulting solution was separated through a glass fiber filter to terminate the reaction. The radioactivity bonded to the filter was quantified by a γ-counter.

Assay [2] concerns spontaneous hypertensive male rat. Description: Test for Hypotensive Effect (oral, spontaneous hypertensive rat). In kind it is in vivo. To be noted: 30 mg/kg, spontaneous hypertensive male rat (10-week age). How it is done:
Test for Hypotensive Effect
The compounds of the present invention to be tested were dissolved in a physiological saline solution and was orally administered to a spontaneous hypertensive male rat (10-week age). The blood pressure of the rat was measured, via a pressure transducer through the catheter that had previously been introduced into its aorta from its femoral artery. The variation in the blood pressure was observed from before the application of the compound to 20 hours after the application thereof.

The test system of the next assay is angiotensin II (AngII). Description: Test for Antagonistic Effect against Angiotensin (inhibition of AngII contraction of rabbit thoracic aorta ring). In kind it is cell-based. To be noted: Oryctolagus cuniculus, AngII 10^-8 M, corrected using DMSO, read-out: Percentage of Inhibition of Contraction; for inhibition at 0.1 µM: 1 × 10^-7 M compound; for inhibition at 0.01 µM: 1 × 10^-8 M compound. How it is done:
Test for Antagonistic Effect against Angiotensin:
A rabbit was sacrificed while anesthetized with pentobarbital, and immediately its thoracic aorta was removed. This was cut into a ring specimen, kept at 37° C. and hung in a nutrient liquid (Krebs-Henseleit solution) aerated with a mixed gas comprising 95% oxygen and 5% carbon dioxide, whereupon its isometric contraction was measured. The specimen was equilibrated for one hour, with replacement of the nutrient liquid every 20 minutes, and thereafter angiotensin II (AngII: 10^-8 M) was applied thereto to cause its contraction. To evaluate the effect of the compounds of the present invention, the compound to be tested (10^-7 M or 10^-8 M) was applied as pre-treatment to the specimen in 20 minutes before the fourth application of AngII thereto, the percentage of inhibiting the contraction caused by AngII was obtained on the basis of the third contraction caused by AngII of being 100%. The percentage was corrected, using dimethylsulfoxide (DMSO).

Turning to `CCCN(Cc1ccc(-c2ccccc2-c2nnn[nH]2)cc1)c1nn(CCc2ccccc2)c(Br)c1C(=O)O` [compound 4], the “Percentage of Inhibition” value in assay [1] came out at 55.1%. In assay [2], the “Time after the administration at which the largest percentage of blood pressure depression was obtained” value stood at 10 h. Moreover, in assay [2] (observed to 20 hours), the “Largest Percentage of Blood Pressure Depression” value worked out at 29.6%. Besides, in the assay with angiotensin II (AngII), the inhibition – broadly, the change of the read-out against control, counted positive when it falls – at 0.1 µM came to 85% and the inhibition at 0.01 µM worked out at 40%.
In the case of `CCCN(Cc1ccc(-c2ccccc2-c2nnn[nH]2)cc1)c1nn(CCc2ccccc2)c(Cl)c1C(=O)O` [compound 56], in the assay with angiotensin II (AngII), the inhibition at 0.1 µM amounted to 84% and the inhibition at 0.01 µM worked out at 51%.
For `CCCN(Cc1ccc(-c2ccccc2-c2nnn[nH]2)cc1)c1nn(CCc2ccccc2)c(-c2ccccc2)c1C(=O)O` [compound 61] the same measures were 77% and 34%.
The like results for `CCCN(Cc1ccc(-c2ccccc2-c2nnn[nH]2)cc1)c1nn(CCc2ccccc2)c(-c2ccc(OC)cc2)c1C(=O)O` [compound 64] were, in that order, 92% and 29%.
The like results for `CCCN(Cc1ccc(-c2ccccc2-c2nnn[nH]2)cc1)c1nn(CCc2ccccc2)c(-c2cccc(Br)n2)c1C(=O)O` [compound 67] were, in that order, 35% and 13%.
For `CCCN(Cc1ccc(-c2ccccc2-c2nnn[nH]2)cc1)c1nn(CCc2ccccc2)c(-c2cccs2)c1C(=O)O` [compound 68], in the assay on angiotensin II (AngII), the inhibition at 0.1 µM stood at 35% and the inhibition at 0.01 µM was determined as 18%.
Take `CCCN(Cc1ccc(-c2ccccc2-c2nnn[nH]2)cc1)c1nn(CCc2ccccc2)c(C(=O)c2ccccc2)c1C(=O)O` [compound 71]: in the assay on angiotensin II (AngII), the inhibition at 0.1 µM is 36% and the inhibition at 0.01 µM is 14%.
For `CCCNc1c(C(=O)O)c(N(CCC)Cc2ccc(-c3ccccc3-c3nnn[nH]3)cc2)nn1CCc1ccccc1` [compound 72] the same measures were 15% and 7%.

Values taken from patent publication US5817828A, “Pyrazole derivatives” (Nissan Chemical Industries, Ltd., priority 1993, dated 1998).
